According to ChEMBL document CHEMBL6134905, “Double Swords in One: Novel Selective PI3K/110β PROTAC Degraders for the Treatment of Multidrug-Resistant Cancer by Activating ERS and Inhibiting P-gp” (J Med Chem, 2025):
Activity calls are given as the source filed them. The calls are words filed in the database; no cut-off is given here. Residues, ends and D or L forms follow the SMILES beside them. *: point of attachment. Cbz = O=C(OCc1ccccc1)*; CH2F = FC*

How the values were obtained:
A549/CDDP [1] = assay: Induction of cell death in human A549/DDP cells at 25 uM incubated for 24 hrs; format: functional, cell-based
MCF7/ADM [2] = assay: Induction of cell death in human MCF-7/ADM cells at 25 uM incubated for 24 hrs; format: functional, cell-based
A549 = assay: Antitumor activity against human A549 cells assessed as cell viability incubated for 24 hrs by MTT assay; format: functional, cell-based; details: A549, 24 h
A549/CDDP [3] = assay: Antitumor activity against human A549/DDP cells assessed as cell viability incubated for 24 hrs by MTT assay; format: functional, cell-based
MCF7 = assay: Antitumor activity against human MCF7 cells assessed as cell viability incubated for 24 hrs by MTT assay; format: functional, cell-based; details: MCF7, 24 h
[4] = target: T1, von Hippel-Lindau disease tumor suppressor/Phosphatidylinositol 4,5-bisphosphate 3-kinase catalytic subunit beta isoform (Homo sapiens, UniProt P42338+P40337); assay: PROTAC activity at PI3K-p110beta/VHL in human A549/DDP cells assessed as reduction in PI3K-p110beta level at 25 uM measured for 24 hrs by Western blot analysis; format: cell-based
[5] = Antitumor activity against human MCF7/ADM cells assessed as cell viability incubated for 24 hrs by MTT assay; format: functional, cell-based
[6] = target: T1, von Hippel-Lindau disease tumor suppressor/Phosphatidylinositol 4,5-bisphosphate 3-kinase catalytic subunit beta isoform; assay: PROTAC activity at PI3K-p110beta/VHL in human A549/DDP cells assessed as reduction in PI3K-p110beta mRNA level at 25 uM measured for 24 hrs by qRT-PCR analysis; format: cell-based
[7] = target: T1, von Hippel-Lindau disease tumor suppressor/Phosphatidylinositol 4,5-bisphosphate 3-kinase catalytic subunit beta isoform; assay: PROTAC activity at PI3K-p110beta/VHL in human MCF7/ADM cells assessed as reduction in PI3K-p110beta mRNA level at 25 uM measured for 24 hrs by qRT-PCR analysis; format: cell-based
[8] = target: T1, von Hippel-Lindau disease tumor suppressor/Phosphatidylinositol 4,5-bisphosphate 3-kinase catalytic subunit beta isoform; assay: PROTAC activity at PI3K-p110beta/VHL in human MCF7/ADM cells assessed as reduction in PI3K-p110beta level at 25 uM measured for 24 hrs by Western blot analysis; format: cell-based
MCF7/ADM [9] = assay: Antitumor activity against human MCF7/ADM cells xenografted in BALB/c mouse assessed as reduction in tumor volume at 50 mg/kg, ip measured every 2 days; format: functional, organism-based; details: time 2.0 day
[10] = target: T1, von Hippel-Lindau disease tumor suppressor/Phosphatidylinositol 4,5-bisphosphate 3-kinase catalytic subunit beta isoform; assay: PROTAC activity at PI3K-p110beta/VHL in human MCF7/ADM cells assessed as induction of PI3K-p110beta degradation at 25 uM incubated for 24 hrs by Western blot analysis; format: cell-based
[11] = target: T1, von Hippel-Lindau disease tumor suppressor/Phosphatidylinositol 4,5-bisphosphate 3-kinase catalytic subunit beta isoform; assay: PROTAC activity at PI3K-p110beta/VHL in human A549/DDP cells assessed as induction of PI3K-p110beta degradation at 2.5 uM incubated for 24 hrs by Western blot analysis; format: cell-based
[12] = target: T1, von Hippel-Lindau disease tumor suppressor/Phosphatidylinositol 4,5-bisphosphate 3-kinase catalytic subunit beta isoform; assay: PROTAC activity at PI3K-p110beta/VHL in human MCF7/ADM cells assessed as induction of PI3K-p110beta degradation at 2.5 uM incubated for 24 hrs by Western blot analysis; format: cell-based
[13] = target: T1, von Hippel-Lindau disease tumor suppressor/Phosphatidylinositol 4,5-bisphosphate 3-kinase catalytic subunit beta isoform; assay: PROTAC activity at PI3K-p110beta/VHL in human A549/DDP cells assessed as induction of PI3K-p110beta degradation at 25 uM incubated for 24 hrs by Western blot analysis; format: cell-based
A549/CDDP [14] = assay: Activation of unfolded protein response in human A549/DDP cells at 25 uM incubated for 24 hrs by PROTEOSTATR aggresome dye based fluorescent microscopy; format: functional, cell-based
[15] = Induction of apoptosis in human MCF7/ADM cells at 25 uM incubated for 24 hrs by Annexin V-FITC/PI staining based flow cytometry analysis (reference value: 5.20%); format: functional
A549/CDDP [16] = assay: Induction of apoptosis in human A549/DDP cells at 25 uM incubated for 24 hrs by Annexin V-FITC/PI staining based flow cytometry analysis (reference value: 4.27%); format: functional

T1 sequence (P40337 whole entry, looked up, canonical isoform): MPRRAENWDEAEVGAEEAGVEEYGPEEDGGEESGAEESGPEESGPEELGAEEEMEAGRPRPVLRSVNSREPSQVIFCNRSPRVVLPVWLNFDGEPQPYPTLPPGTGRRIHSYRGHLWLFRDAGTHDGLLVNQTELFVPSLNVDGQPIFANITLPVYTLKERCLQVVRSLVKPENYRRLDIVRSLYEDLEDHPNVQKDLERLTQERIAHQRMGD
T1 sequence (P42338 whole entry, looked up, canonical isoform): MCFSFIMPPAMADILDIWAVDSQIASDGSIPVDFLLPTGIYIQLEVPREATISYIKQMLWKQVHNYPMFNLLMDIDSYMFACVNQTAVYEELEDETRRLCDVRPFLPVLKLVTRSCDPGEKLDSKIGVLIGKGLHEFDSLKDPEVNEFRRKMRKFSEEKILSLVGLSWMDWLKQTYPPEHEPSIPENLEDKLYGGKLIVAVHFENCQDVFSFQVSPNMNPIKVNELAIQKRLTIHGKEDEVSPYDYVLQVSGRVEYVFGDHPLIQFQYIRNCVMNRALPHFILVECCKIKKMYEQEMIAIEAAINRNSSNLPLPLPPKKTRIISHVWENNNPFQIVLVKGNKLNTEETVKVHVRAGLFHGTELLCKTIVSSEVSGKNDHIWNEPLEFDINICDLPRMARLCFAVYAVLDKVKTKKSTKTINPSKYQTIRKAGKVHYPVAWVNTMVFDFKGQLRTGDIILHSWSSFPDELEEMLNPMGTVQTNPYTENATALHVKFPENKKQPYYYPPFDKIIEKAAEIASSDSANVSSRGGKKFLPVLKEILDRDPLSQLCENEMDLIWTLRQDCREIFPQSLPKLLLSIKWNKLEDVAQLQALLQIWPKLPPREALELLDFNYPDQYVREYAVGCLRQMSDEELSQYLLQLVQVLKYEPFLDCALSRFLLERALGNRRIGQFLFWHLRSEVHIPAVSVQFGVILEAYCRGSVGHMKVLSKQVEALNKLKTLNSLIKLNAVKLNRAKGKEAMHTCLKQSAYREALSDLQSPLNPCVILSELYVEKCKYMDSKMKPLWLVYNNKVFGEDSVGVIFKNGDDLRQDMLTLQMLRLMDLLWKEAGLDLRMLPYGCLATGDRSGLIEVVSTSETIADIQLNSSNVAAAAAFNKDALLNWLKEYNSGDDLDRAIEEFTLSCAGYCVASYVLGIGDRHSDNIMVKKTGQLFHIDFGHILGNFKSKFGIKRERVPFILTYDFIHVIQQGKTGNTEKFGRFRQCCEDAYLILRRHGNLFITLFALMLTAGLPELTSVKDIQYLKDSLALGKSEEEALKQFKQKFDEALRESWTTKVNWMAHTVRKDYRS

Activity [10]	Activity [11]	Activity [12]	Activity [13]	Compound	further results
				CC(C)[C@H](NC(=O)OCc1ccccc1)C(=O)N[C@@H](C)C(=O)N[C@@H](CC(=O)O)C(=O)CF (Cbz-Val-Ala-Asp-CH2F)	Activity (A549/CDDP [1]): Active; Activity (MCF7/ADM [2]): Active
				Cc1cc(C(C)Nc2ccccc2)c2nc(N3CCOCC3)cc(=O)n2c1 (configuration not stated)	IC50 (A549): 88.3 µM; IC50 (A549/CDDP [3]): 57.9 µM; IC50 (MCF7): 75.1 µM; Activity [4]: inactive; IC50 [5]: 50.8 µM; Activity [6]: inactive; Activity [7]: Active; Activity [8]: inactive; Activity (MCF7/ADM [9]): Active
Active	Active	Active	Active	Cc1cc(C(C)Nc2ccccc2C(=O)NCCC(=O)N[C@H](C(=O)N2C[C@H](O)C[C@H]2C(=O)NCc2ccc(-c3scnc3C)cc2)C(C)(C)C)c2nc(N3CCOCC3)cc(=O)n2c1 (some centres not stated)	
Active	Active	Active	Active	Cc1cc(C(C)Nc2ccccc2C(=O)NCCCCCCCC(=O)N[C@H](C(=O)N2C[C@H](O)C[C@H]2C(=O)NCc2ccc(-c3scnc3C)cc2)C(C)(C)C)c2nc(N3CCOCC3)cc(=O)n2c1 (some centres not stated)	
Active	Active	Active	Active	Cc1cc(C(C)Nc2ccccc2C(=O)NCCCCCC(=O)N[C@H](C(=O)N2C[C@H](O)C[C@H]2C(=O)NCc2ccc(-c3scnc3C)cc2)C(C)(C)C)c2nc(N3CCOCC3)cc(=O)n2c1 (some centres not stated)	
				O=c1cc(N2CCOCC2)oc2c(-c3ccccc3)cccc12	Activity (A549/CDDP [14]): Active
				C[C@H](CCC(=O)NCCS(=O)(=O)O)[C@H]1CC[C@H]2[C@@H]3[C@@H](O)C[C@@H]4C[C@H](O)CC[C@]4(C)[C@H]3CC[C@]12C [TAURURSODIOL]	Activity (A549/CDDP [1]): Active; Activity [15]: 21.48%; Activity (MCF7/ADM [2]): Active; Activity (A549/CDDP [16]): 18.57%
Active	Active	Active	Active	Cc1cc(C(C)Nc2ccccc2C(=O)NCCCC(=O)N[C@H](C(=O)N2C[C@H](O)C[C@H]2C(=O)NCc2ccc(-c3scnc3C)cc2)C(C)(C)C)c2nc(N3CCOCC3)cc(=O)n2c1 (some centres not stated)	
Active	Active	Active	Active	Cc1cc(C(C)Nc2ccccc2C(=O)NCCCCCCCCCCC(=O)N[C@H](C(=O)N2C[C@H](O)C[C@H]2C(=O)NCc2ccc(-c3scnc3C)cc2)C(C)(C)C)c2nc(N3CCOCC3)cc(=O)n2c1 (some centres not stated)	
				N#CSc1cc(SC#N)c(N)nc1N	Activity (A549/CDDP [14]): Active
